Reference: EP4810038A1, “METHOD FOR TREATING ALK-POSITIVE OR ROS1-POSITIVE NON-SMALL CELL LUNG CANCER” (Shenzhen TargetRx Co., Ltd., priority 2023, dated 2025)
Several values for one entry are separate records, joined by “and”; a condition that tells them apart may be missing. Identical values can stand only once.

Columns and labels:
[1] = system: Ba/F3 (EML4-ALK G1202R) cell line; experiment: Anti-tumor effect in subcutaneous transplanted Ba/F3 (EML4-ALK G1202R) model; type: in vivo, NOD-SCID mice; conditions: for average tumor volume: 16th day after administration
Source text: Example 2: The anti-tumor effect in the subcutaneous transplanted animal model of Ba/F3 (EML4-ALK G1202R) cell line in female NOD-SCID mice.
Laboratory animals: NOD-SCID mice, female, 7 to 8 weeks old (the age of mice at tumor cell inoculation), weighing 16.0 to 20.3 g, and 50 mice (with additional 30 surplus mice). […] Housing environment: SPF grade.
Environmental conditions of the housing room of the laboratory animals: All the laboratory animals were housed in individually ventilated cages with constant temperature and constant humidity. The temperature of the housing room was 20 to 26 °C, the humidity was 40 to 70%, the ventilation was 10 to 20 times/hour, and the day/night light/dark cycle was 12h/12h. The animals were continuously provided with cobalt-60 irradiated complete pelleted mouse feed with unlimited free access. The animals drank tap water (used after being autoclaved), which was provided continuously from water bottles, allowing for free access. The cages for raising the mice were polysulfone mice cages, which were autoclaved before use, and measured 325 mm × 210 mm × 180 mm. The bedding was autoclaved corn cobs. Each cage contained 5 animals. […] The laboratory animals were marked with ear tags or ear labels.
Cell culture: Ba/F3 (EML4-ALK G1202R) cells (cell number: ECL-00031) were cultured in RPMI 1640 culture medium containing 10% fetal bovine serum. The Ba/F3 (EML4-ALK G1202R) cells in the exponential growth phase were collected, resuspended in PBS to a suitable concentration, and then subcutaneously inoculated for tumor formation.
Assay method: Female NOD/SCID mice were subcutaneously inoculated with 2×10^6 Ba/F3 (EML4-ALK G1202R) cells on the right side to establish a subcutaneous tumor transplantation model. […] The mice were administered orally via gavage once daily. The efficacy was evaluated based on the relative tumor growth inhibition rate (TGI), and the safety was evaluated based on the changes in the body weight and mortality of the animals.
(§1) All the procedures, including drug administration, tumor measurement, weight measurement, etc., were performed in a biosafety cabinet or on a clean bench.
The relative tumor growth rate (T/C%) was the percentage value of the relative tumor volume between a treatment group and the control group at a certain time point, or the percentage value of the tumor weight between a treatment group and the control group. […]

[2] = system: Ba/F3 (SLC34A2-ROS1 G2032R) cell line; experiment: Anti-tumor effect in subcutaneous transplanted Ba/F3 (SLC34A2-ROS1 G2032R) model; type: in vivo, NOD-SCID mice; conditions: for average tumor volume: 21st day after administration
Source text: Housing environment: SPF grade.
Environmental conditions of the housing room of the laboratory animals: All the laboratory animals were housed in individually ventilated cages with constant temperature and constant humidity. […] The animals were continuously provided with cobalt-60 irradiated complete pelleted mouse feed with unlimited free access. The animals drank tap water (used after being autoclaved), which was provided continuously from water bottles, allowing for free access. The cages for raising the mice were polysulfone mice cages, which were autoclaved before use, and measured 325 mm × 210 mm × 180 mm. The bedding was autoclaved corn cobs. Each cage contained 5 animals. The cage cards were marked with the IACUC approval number, experiment number, start time of the experiment, project leader, experimenters, source of the animals, group, and animal number. The laboratory animals were marked with ear tags or ear labels.
The Ba/F3 (SLC34A2-ROS1 G2032R) cells in the exponential growth phase were collected, resuspended in PBS to a suitable concentration, and then subcutaneously inoculated into nude mice for tumor formation.
Assay method: Female NOD/SCID mice were subcutaneously inoculated with 2×10^6 Ba/F3 (SLC34A2-ROS1 G2032R) cells on the right side to establish a subcutaneous tumor transplantation model. […] The mice were administered orally via gavage once daily. The efficacy was evaluated based on the relative tumor growth inhibition rate (TGI), and the safety was evaluated based on the changes in the body weight and mortality of the animals.
as §1
The relative tumor growth rate (T/C%) was the percentage value of the relative tumor volume between a treatment group and the control group at a certain time point, or the percentage value of the tumor weight between a treatment group and the control group. The calculation formula was: T/C% = TRTV / CRTV × 100% (TRTV: the average RTV of the treatment group; CRTV: the average RTV of the solvent control group; RTV = Vt / V0, wherein V0 is the tumor volume of the animal at the time of grouping, and Vt is the tumor volume of the animal after treatment); or T/C% = TTW / CTW × 100% (TTW: the average tumor weight at the end of the assay in the treatment group; CTW: the average tumor weight at the end of the assay in the solvent control group).
Statistical analysis: To compare the tumor volume on a given day across the different treatment groups, we first used the Bartlett's test to verify the assumption of homogeneity of variance among all the groups. When the p-value of the Bartlett's test was not less than 0.05, one-way ANOVA was used to test whether the means of all the groups were equal. If the p-value of the one-way ANOVA was less than 0.05, we would use the Tukey's HSD test for the pairwise comparisons between all the groups, or use the Dunnett's test for a pairwise comparison between each treatment group and the control group. When the p-value of the Bartlett's test was less than 0.05, the Kruskal-Wallis test was used to test whether the medians of all the groups were equal. […]

[3] = system: ALK-positive advanced NSCLC who had failed a second-generation ALK inhibitor; experiment: Phase II single-arm trial, 60 mg QD: whole-body tumor efficacy (IRC assessment); type: in vivo, human
Source text: Variable of the research: whether the subjects achieved objective response (CR/PR) during the treatment, as assessed by the independent review committee (IRC).

[4] = system: ALK fusion; experiment: Phase I clinical trial: biomarker analysis of 26 subjects previously treated with at least one ALK inhibitor
[5] = 158 subjects, cutoff May 20, 2024
[6] = whole-body, full analysis set (N=158)
[7] = bypass signaling alteration BRCA1
[8] = bypass signaling alteration BRCA2
[9] = bypass signaling alteration CCNE1
[10] = bypass signaling alteration CDKN2A
[11] = bypass signaling alteration EGFR
[12] = bypass signaling alteration IGF1R
[13] = bypass signaling alteration KIT
[14] = bypass signaling alteration MET
[15] = bypass signaling alteration RB1
[16] = bypass signaling alteration TP53

With `[2H]C([2H])([2H])n1nc2c(c1C#N)-c1cnc(N)c(c1)O[C@H](C)c1cc(F)ccc1C(=O)N(C)C2` [compound A, (10R)-7-amino-12-fluoro-2-(methyl-d3)-10,16-dimethyl-15-oxo-10,15,16,17-tetrahydro-2H-8,4-(metheno)pyrazolo[4,3-h][2,5,11]benzoxadiazacyclotetradecine-3-carbonitrile] the average tumor volume ([1]; 1.5 mg/kg p.o. once daily) was 2139.18 mm^3, the average tumor volume ([1]; 5 mg/kg p.o. once daily) was 576.11 mm^3 and the average tumor volume ([1]; 15 mg/kg p.o. once daily) was 0.25 mm^3. The “tumor-bearing mice with tumor volume reduced to 0” value ([1]; 15 mg/kg, end of the assay) was 9/10, the average tumor volume ([2]; 1.5 mg/kg p.o. once daily) was 1334.38 mm^3 and the average tumor volume ([2]; 5 mg/kg p.o. once daily) was 305.46 mm^3. The average tumor volume ([2]; 15 mg/kg p.o. once daily) was 0 mm^3, the “tumor-bearing mice with tumor volume reduced to 0” value ([2]; 15 mg/kg, end of the assay) was 10/10 and the “median DOR” value [3, 5] was “not yet reached”. The “median PFS” value [3, 5] was 11.14 months, the “median TTR” value [3, 5] was 1.38 months and the ORR ([3]; subgroup ECOG PS score of 0 at baseline, FAS) was 50.0%. The ORR ([3]; subgroup ECOG PS score of 1 to 2 at baseline, FAS) was 40.8%, the ORR ([3]; subgroup age < 65 years old, FAS) was 43.0% and the ORR ([3]; subgroup age ≥ 65 years old, FAS) was 40.0%. It also gave an ORR ([3]; subgroup female, FAS) of 42.9%, an ORR ([3]; subgroup male, FAS) of 41.9% and an ORR ([3]; subgroup never received chemotherapy, FAS) of 45.4%. It also gave an ORR ([3]; subgroup previously received chemotherapy, FAS) of 37.7%, an ORR ([3]; subgroup with a smoking history, FAS) of 38.6% and an ORR ([3]; subgroup with brain metastases at baseline, FAS) of 45.3%. For the same molecule, the ORR ([3]; subgroup without a smoking history, FAS) was 39.4%, the ORR ([3]; subgroup without brain metastases at baseline, FAS) was 38.9% and the “BOR CR” value [3, 6] was 0 n (%). The “BOR NE” value [3, 6] was 2 (1.3) n (%), the “BOR PD” value [3, 6] was 25 (15.8) n (%) and the “BOR PR” value [3, 6] was 67 n (%) and 67 (42.4) n (%). The “BOR SD” value [3, 6] was 64 (40.5) n (%), the DCR [3, 6] was 131 (82.9) n (%) and the ORR [3, 6] was 67 n (%) and 67 (42.4) n (%). For the same molecule, the “PFS, mutant TP53 versus wild-type TP53” value ([4]; ALK TKI resistance subgroup, P=0.235) was “no difference”, the “Disease control rate (CR + PR + SD)” value ([4]; ALK fusion (all 26 subjects)) was 20/26 and the “Overall response rate (CR + PR)” value ([4]; ALK fusion (all 26 subjects)) was 11/26. The Partial response ([4]; ALK fusion (all 26 subjects)) was 11 and 11/26, the Progressive disease ([4]; ALK fusion (all 26 subjects)) was 6/26 and the Stable disease ([4]; ALK fusion (all 26 subjects)) was 9/26. The “Disease control rate (CR + PR + SD)” value ([4]; ALK fusion V1) was 4/6, the “Overall response rate (CR + PR)” value ([4]; ALK fusion V1) was 2/6 and the Partial response ([4]; ALK fusion V1) was 2/6. The Progressive disease ([4]; ALK fusion V1) was 2/6, the Stable disease ([4]; ALK fusion V1) was 2/6 and the “Disease control rate (CR + PR + SD)” value ([4]; ALK fusion V2) was 3/3. The “Overall response rate (CR + PR)” value ([4]; ALK fusion V2) was 1/3, the Partial response ([4]; ALK fusion V2) was 1/3 and the Progressive disease ([4]; ALK fusion V2) was 0/3. The Stable disease ([4]; ALK fusion V2) was 2/3, the “Disease control rate (CR + PR + SD)” value ([4]; ALK fusion V3) was 7/8 and the “Overall response rate (CR + PR)” value ([4]; ALK fusion V3) was 5/8. The Partial response ([4]; ALK fusion V3) was 5/8, the Progressive disease ([4]; ALK fusion V3) was 1/8 and the Stable disease ([4]; ALK fusion V3) was 2/8. The “Disease control rate (CR + PR + SD)” value ([4]; ALK fusion V5) was 1/1, the “Overall response rate (CR + PR)” value ([4]; ALK fusion V5) was 1/1 and the Partial response ([4]; ALK fusion V5) was 1/1. The Progressive disease ([4]; ALK fusion V5) was 0/1, the Stable disease ([4]; ALK fusion V5) was 0/1 and the “Disease control rate (CR + PR + SD)” value ([4]; ALK fusion others) was 5/8. For the same molecule, the “Overall response rate (CR + PR)” value ([4]; ALK fusion others) was 2/8, the Partial response ([4]; ALK fusion others) was 2/8 and the Progressive disease ([4]; ALK fusion others) was 3/8. For the same molecule, the Stable disease ([4]; ALK fusion others) was 3/8, the “Disease control rate (CR + PR + SD)” value ([4]; ALK mutation (any)) was 10/12 and the “Overall response rate (CR + PR)” value ([4]; ALK mutation (any)) was 5/12. For the same molecule, the Partial response ([4]; ALK mutation (any)) was 5/12, the Progressive disease ([4]; ALK mutation (any)) was 2/12 and the Stable disease ([4]; ALK mutation (any)) was 5/12. For the same molecule, the “Disease control rate (CR + PR + SD)” value ([4]; ALK mutation p.E1210K p.D1203N) was 0/1, the “Overall response rate (CR + PR)” value ([4]; ALK mutation p.E1210K p.D1203N) was 0/1 and the Partial response ([4]; ALK mutation p.E1210K p.D1203N) was 0/1. The Progressive disease ([4]; ALK mutation p.E1210K p.D1203N) was 1/1, the Stable disease ([4]; ALK mutation p.E1210K p.D1203N) was 0/1 and the “Disease control rate (CR + PR + SD)” value ([4]; ALK mutation p.G1202R) was 5/6. The “Overall response rate (CR + PR)” value ([4]; ALK mutation p.G1202R) was 3/6, the Partial response ([4]; ALK mutation p.G1202R) was 3/6 and the Progressive disease ([4]; ALK mutation p.G1202R) was 1/6. The Stable disease ([4]; ALK mutation p.G1202R) was 2/6, the “Disease control rate (CR + PR + SD)” value ([4]; ALK mutation p.I1171N) was 1/1 and the “Overall response rate (CR + PR)” value ([4]; ALK mutation p.I1171N) was 0/1. For the same molecule, the Partial response ([4]; ALK mutation p.I1171N) was 0/1, the Progressive disease ([4]; ALK mutation p.I1171N) was 0/1 and the Stable disease ([4]; ALK mutation p.I1171N) was 1/1. The “Disease control rate (CR + PR + SD)” value ([4]; ALK mutation p.I1171T) was 1/1, the “Overall response rate (CR + PR)” value ([4]; ALK mutation p.I1171T) was 0/1 and the Partial response ([4]; ALK mutation p.I1171T) was 0/1. The Progressive disease ([4]; ALK mutation p.I1171T) was 0/1, the Stable disease ([4]; ALK mutation p.I1171T) was 1/1 and the “Disease control rate (CR + PR + SD)” value [4, 7] was 0/1. For the same molecule, the “Overall response rate (CR + PR)” value [4, 7] was 0/1, the Partial response [4, 7] was 0/1 and the Progressive disease [4, 7] was 1/1. For the same molecule, the Stable disease [4, 7] was 0/1, the “Disease control rate (CR + PR + SD)” value [4, 8] was 1/1 and the “Overall response rate (CR + PR)” value [4, 8] was 1/1. For the same molecule, the Partial response [4, 8] was 1/1, the Progressive disease [4, 8] was 0/1 and the Stable disease [4, 8] was 0/1. For the same molecule, the “Disease control rate (CR + PR + SD)” value [4, 9] was 1/1, the “Overall response rate (CR + PR)” value [4, 9] was 1/1 and the Partial response [4, 9] was 1/1. The Progressive disease [4, 9] was 0/1, the Stable disease [4, 9] was 0/1 and the “Disease control rate (CR + PR + SD)” value [4, 10] was 1/1. For the same molecule, the “Overall response rate (CR + PR)” value [4, 10] was 0/1, the Partial response [4, 10] was 0/1 and the Progressive disease [4, 10] was 0/1. For the same molecule, the Stable disease [4, 10] was 1/1, the “Disease control rate (CR + PR + SD)” value [4, 11] was 1/1 and the “Overall response rate (CR + PR)” value [4, 11] was 0/1. For the same molecule, the Partial response [4, 11] was 0/1, the Progressive disease [4, 11] was 0/1 and the Stable disease [4, 11] was 1/1. The “Disease control rate (CR + PR + SD)” value [4, 12] was 0/1, the “Overall response rate (CR + PR)” value [4, 12] was 0/1 and the Partial response [4, 12] was 0/1. For the same molecule, the Progressive disease [4, 12] was 1/1, the Stable disease [4, 12] was 0/1 and the “Disease control rate (CR + PR + SD)” value [4, 13] was 1/1. The “Overall response rate (CR + PR)” value [4, 13] was 1/1, the Partial response [4, 13] was 1/1 and the Progressive disease [4, 13] was 0/1. The Stable disease [4, 13] was 0/1, the “Disease control rate (CR + PR + SD)” value [4, 14] was 2/2 and the “Overall response rate (CR + PR)” value [4, 14] was 1/2. The Partial response [4, 14] was 1/2, the Progressive disease [4, 14] was 0/2 and the Stable disease [4, 14] was 1/2. For the same molecule, the “Disease control rate (CR + PR + SD)” value [4, 15] was 0/1, the “Overall response rate (CR + PR)” value [4, 15] was 0/1 and the Partial response [4, 15] was 0/1. For the same molecule, the Progressive disease [4, 15] was 1/1, the Stable disease [4, 15] was 0/1 and the “Disease control rate (CR + PR + SD)” value [4, 16] was 7/9. The “Overall response rate (CR + PR)” value [4, 16] was 4/9, the Partial response [4, 16] was 4/9 and the Progressive disease [4, 16] was 2/9. For the same molecule, the Stable disease [4, 16] was 3/9, the ORR ([4]; subjects with G1202R mutation) was 50% and the ORR ([4]; subjects with variant 1) was 33.3%. It also gave an ORR ([4]; subjects with variant 3) of 62.5%.
